In US8933106B2, “2-(4-substituted phenylamino) polysubstituted pyridine compounds as inhibitors of non-nucleoside HIV reverse transcriptase, preparation methods and uses thereof” (Institute of Pharmacology and Toxicology Academy of …, priority 2008, dated 2015):
Converted amounts (≈) assume the structure as drawn.

Legend:
HIV-1IIIB virus strain = assay: Anti-HIV activity test (MT-2 cell model), p24 antigen ELISA; assay type: cell-based; settings: MT-2 cells; for EC50: Human immunodeficiency virus 1, MT2, HIV-1IIIB, 4th day, p24 antigen; for SI(CC50/EC50): ratio of toxicity CC50 value to activity EC50 value
Protocol: Please refer to the document (Jiang, S., et al. Antimicrob. Agents Chemother. 2004, 48, 4349-4359). In a 96-pore cell culture plate, 50 μl of different concentrations of compound solutions were respectively mixed with equal-volume of HIV-1IIIB virus strain (100 TCID50), and incubated at 37° C. for 30 min, and then 100 μl MT-2 cell (1×10^5/mL, RPIM 1640 culture medium containing 10% serum) was added, and mixed homogenously, followed by incubation at 37° C. overnight. On the second day, 150 μl of the supernatant was sucked out, and equal-volume of fresh culture medium was replenished, followed by further incubation at 37° C. for 3 days. On the 4th day, cytopathic effect (CPE) was recorded. Thereafter, 100 μl of culture supernatant was sucked out, virus particles were split using 5% Triton X-100, and p24 antigen therein was tested by using ELISA assay. Briefly, a ELISA plate was coated with HIVIG (2 μg/mL), and blocked with 1% fat-free milk, then a virus lysate was added therein, followed by incubation at 37° C. for 60 min. After fully washing the plate, anti-p24 monoclonal antibody-183-12H-5C, biotin-labeled goat antimouse antibody and […]-labeled horseradish peroxidase were added in sequence. Then, after developing with TMB, OD was tested at 450 nm. The 50% effective concentration (EC50) of the compound was calculated using CalcuSyn software.

[1] = Cytotoxicity test of the compound (MT-2 cells, XTT); assay type: cell-based; settings: human, 4th day
Protocol: Please refer to the document (Jiang, S., et al. Antimicrob. Agents Chemother. 2004, 48, 4349-4359). In a 96-pore cell culture plate, 50 μl of different concentrations of compound solutions were respectively mixed with equal-volume of PBS, and incubated at 37° C. for 30 min, and then 100 μl MT-2 (or H9) cells (1×10^5/mL, RPIM 1640 culture medium containing 10% serum) was added, and mixed homogenously, followed by incubation at 37° C. overnight. On the second day, 150 μl of the supernatant was sucked out, and equal-volume of fresh culture medium was replenished, followed by further incubation at 37° C. for 3 days. On the 4th day, 50 μl of a XTT solution (1 mg/mL) containing PMS as freshly prepared was added. After 4 h, OD at 450 nm was tested. The 50% cytotoxicity concentration (CC50) of the compound was calculated using CalcuSyn software.

Compound: Cc1cc([N+](=O)[O-])cc(C)c1Oc1ccc([N+](=O)[O-])c(Nc2ccc(C#N)cc2)n1
- melting point: 250 to 252 °C

Compound: Cc1cc(C)c(Oc2ccc([N+](=O)[O-])c(Nc3ccc(C#N)cc3)n2)c(C)c1 [Compound I-3, 2-(4-cyanophenylamino)-6-(2,4,6-trimethylphenoxy)-3-nitropyridine]
- EC50 (HIV-1IIIB virus strain): 0.118 µg/mL (≈ 0.315 µM)
- SI(CC50/EC50) (HIV-1IIIB virus strain): 4,264
- CC50 at 4 days [1]: 503 µg/mL (≈ 1340 µM)

Compound: Cc1cc(C=CC#N)cc(C)c1Oc1ccc([N+](=O)[O-])c(Nc2ccc(C#N)cc2)n1 [Compound I-5, 2-(4-cyanophenylamino)-6-(2,6-dimethyl-4-cyanovinylphenoxy)-3-nitropyridine]
- EC50 (HIV-1IIIB virus strain): 0.005 µg/mL (≈ 0.0122 µM)
- SI(CC50/EC50) (HIV-1IIIB virus strain): 4,956
- CC50 at 4 days [1]: 24.8 µg/mL (≈ 60.2 µM)

Compound: Cc1cc(C#N)cc(C)c1Oc1ccc(N)c(Nc2ccc(C#N)cc2)n1 [Compound I-6, 3-amino-2-(4-cyanophenylamino)-6-(2,6-dimethyl-4-cyanophenoxy)pyridine]
- EC50 (HIV-1IIIB virus strain): 0.0005 µg/mL (≈ 0.00141 µM)
- SI(CC50/EC50) (HIV-1IIIB virus strain): 22,560
- CC50 at 4 days [1]: 11.3 µg/mL (≈ 31.7 µM)

Compound: Cc1cc(CO)cc(C)c1Oc1ccc([N+](=O)[O-])c(Nc2ccc(C#N)cc2)n1 [Compound I-8, 2-(4-cyanophenylamino)-6-(2,6-dimethyl-4-hydroxymethylphenoxy)-3-nitropyridine]
- EC50 (HIV-1IIIB virus strain): 0.075 µg/mL (≈ 0.192 µM)
- SI(CC50/EC50) (HIV-1IIIB virus strain): 602
- CC50 at 4 days [1]: 45.2 µg/mL (≈ 116 µM)

Compound: C=CCc1cc(C)c(Oc2ccc([N+](=O)[O-])c(Nc3ccc(C#N)cc3)n2)c(C)c1 [Compound I-9, 2-(4-cyanophenylamino)-6-(2,6-dimethyl-4-allylphenoxy)-3-nitropyridine]
- EC50 (HIV-1IIIB virus strain): 0.109 µg/mL (≈ 0.272 µM)
- SI(CC50/EC50) (HIV-1IIIB virus strain): >917
- CC50 at 4 days [1]: > 100 µg/mL

Compound: Cc1cc(C=CC#N)cc(C)c1Oc1ccc(N)c(Nc2ccc(C#N)cc2)n1 [Compound I-10, 3-amino-2-(4-cyanophenylamino)-6-(2,6-dimethyl-4-cyanovinylphenoxy)pyridine]
- EC50 (HIV-1IIIB virus strain): 0.0042 µg/mL (≈ 0.011 µM)
- SI(CC50/EC50) (HIV-1IIIB virus strain): 6,656
- CC50 at 4 days [1]: 27.9 µg/mL (≈ 73.3 µM)

Compound: Cc1cc(Br)cc(C)c1Oc1ccc(N)c(Nc2ccc(C#N)cc2)n1 [Compound I-12, 3-amino-2-(4-cyanophenylamino)-6-(2,6-dimethyl-4-bromophenoxy)pyridine]
- melting point: 190 to 193 °C
- EC50 (HIV-1IIIB virus strain): 0.021 µg/mL (≈ 0.0513 µM)
- SI(CC50/EC50) (HIV-1IIIB virus strain): 259
- CC50 at 4 days [1]: 5.44 µg/mL (≈ 13.3 µM)

Compound: C=CCc1cc(C)c(Oc2ccc(N)c(Nc3ccc(C#N)cc3)n2)c(C)c1 [Compound I-13, 3-amino-2-(4-cyanophenylamino)-6-(2,6-dimethyl-4-allylphenoxy)pyridine]
- melting point: 150 to 152 °C
- EC50 (HIV-1IIIB virus strain): 0.09 µg/mL (≈ 0.243 µM)
- SI(CC50/EC50) (HIV-1IIIB virus strain): 24
- CC50 at 4 days [1]: 2.13 µg/mL (≈ 5.75 µM)

Compound: Cc1cc(C(O)C[N+](=O)[O-])cc(C)c1Oc1ccc([N+](=O)[O-])c(Nc2ccc(C#N)cc2)n1 (stereo not shown) [Compound I-14, 2-(4-cyanophenylamino)-6-(2,6-dimethyl-4-(1-hydroxy-2-nitroethyl)phenoxy)-3-nitropyridine]
- melting point: 230 to 234 °C
- EC50 (HIV-1IIIB virus strain): 0.77 µg/mL (≈ 1.71 µM)
- SI(CC50/EC50) (HIV-1IIIB virus strain): 16
- CC50 at 4 days [1]: 12.2 µg/mL (≈ 27 µM)

Compound: Cc1cc(CNC2CC2)cc(C)c1Oc1ccc([N+](=O)[O-])c(Nc2ccc(C#N)cc2)n1 [Compound I-15, 2-(4-cyanophenylamino)-6-(2,6-dimethyl-4-(2-cyclopropylaminomethyl)phenoxy)-3-nitropyridine]
- melting point: 175 to 177 °C

Compound: Cc1cc(I)cc(C)c1Oc1ccc([N+](=O)[O-])c(Nc2ccc(C#N)cc2)n1 [Compound I-16, 2-(4-cyanophenylamino)-6-(2,6-dimethyl-4-iodophenoxy)-3-nitropyridine]
- melting point: 162 to 165 °C
- EC50 (HIV-1IIIB virus strain): 1.18 µg/mL (≈ 2.43 µM)
- SI(CC50/EC50) (HIV-1IIIB virus strain): 61
- CC50 at 4 days [1]: 72.2 µg/mL (≈ 148 µM)

Compound: Cc1cc(C#CC(C)(C)O)cc(C)c1Oc1ccc([N+](=O)[O-])c(Nc2ccc(C#N)cc2)n1 [Compound I-18, 2-(4-cyanophenylamino)-6-(2,6-dimethyl-4-(3-methyl-3-hydroxy-1-butynyl)phenoxy)-3-nitropyridine]
- melting point: 114 to 116 °C

Compound: Cc1cc(C#CC2CC2)cc(C)c1Oc1ccc([N+](=O)[O-])c(Nc2ccc(C#N)cc2)n1 [Compound I-20, 2-(4-cyanophenylamino)-6-(2,6-dimethyl-4-(cyclopropylethynyl)phenoxy)-3-nitropyridine]
- melting point: 188 to 192 °C

Compound: Cc1cc(C#CC2CC2)cc(C)c1Oc1ccc(N)c(Nc2ccc(C#N)cc2)n1 [Compound I-21, 3-amino-2-(4-cyanophenylamino)-6-(2,6-dimethyl-4-(cyclopropylethynyl)phenoxy)pyridine]
- melting point: 82 to 85 °C

Compound: C#Cc1cc(C)c(Oc2ccc([N+](=O)[O-])c(Nc3ccc(C#N)cc3)n2)c(C)c1 [Compound I-22, 2-(4-cyanophenylamino)-6-(2,6-dimethyl-4-ethynylphenoxy)-3-nitropyridine]
- melting point: 186 to 188 °C
- EC50 (HIV-1IIIB virus strain): 0.26 µg/mL (≈ 0.676 µM)
- SI(CC50/EC50) (HIV-1IIIB virus strain): 256
- CC50 at 4 days [1]: 66.7 µg/mL (≈ 173 µM)

Compound: C#Cc1cc(C)c(Oc2ccc(N)c(Nc3ccc(C#N)cc3)n2)c(C)c1 [Compound I-23, 3-amino-2-(4-cyanophenylamino)-6-(2,6-dimethyl-4-ethynylphenoxy)pyridine]
- melting point: 79 to 82 °C
- EC50 (HIV-1IIIB virus strain): 0.15 µg/mL (≈ 0.423 µM)
- SI(CC50/EC50) (HIV-1IIIB virus strain): 19
- CC50 at 4 days [1]: 2.92 µg/mL (≈ 8.24 µM)

Compound: Cc1cc(N)cc(C)c1Oc1ccc(N)c(Nc2ccc(C#N)cc2)n1 [Compound I-24, 3-amino-2-(4-cyanophenylamino)-6-(2,6-dimethyl-4-aminophenoxy)pyridine]
- melting point: 195 to 198 °C

Compound: Cc1cc(I)cc(C)c1Oc1ccc(N)c(Nc2ccc(C#N)cc2)n1 [Compound I-25, 3-amino-2-(4-cyanophenylamino)-6-(2,6-dimethyl-4-iodophenoxy)pyridine]
- EC50 (HIV-1IIIB virus strain): 0.036 µg/mL (≈ 0.0789 µM)
- SI(CC50/EC50) (HIV-1IIIB virus strain): 298
- CC50 at 4 days [1]: 10.7 µg/mL (≈ 23.5 µM)

Compound: N#Cc1ccc(Nc2nc(Oc3c(Br)cc(Br)cc3Br)ccc2[N+](=O)[O-])cc1 [Compound I-26, 2-(4-cyanophenylamino)-6-(2,4,6-tribromophenoxy)-3-nitropyridine]
- melting point: 188 to 191 °C
- EC50 (HIV-1IIIB virus strain): 0.179 µg/mL (≈ 0.315 µM)
- SI(CC50/EC50) (HIV-1IIIB virus strain): 151
- CC50 at 4 days [1]: 27 µg/mL (≈ 47.4 µM)

Compound: N#Cc1ccc(Nc2nc(Oc3c(Br)cc(C=O)cc3Br)ccc2[N+](=O)[O-])cc1 [Compound I-27, 2-(4-cyanophenylamino)-6-(2,6-dibromo-4-formylphenoxy)-3-nitropyridine]
- melting point: 218 to 220 °C
- EC50 (HIV-1IIIB virus strain): 0.152 µg/mL (≈ 0.293 µM)
- CC50 at 4 days [1]: 0.78 µg/mL (≈ 1.51 µM)

Compound: N#Cc1ccc(Nc2nc(Oc3c(Br)cc(CO)cc3Br)ccc2[N+](=O)[O-])cc1 [Compound I-28, 2-(4-cyanophenylamino)-6-(2,6-dibromo-4-hydroxymethylphenoxy)-3-nitropyridine]
- melting point: 209 to 213 °C
- EC50 (HIV-1IIIB virus strain): 0.253 µg/mL (≈ 0.486 µM)
- SI(CC50/EC50) (HIV-1IIIB virus strain): 145
- CC50 at 4 days [1]: 36.3 µg/mL (≈ 69.8 µM)

Compound: N#Cc1ccc(Nc2nc(Oc3c(F)cccc3F)ccc2[N+](=O)[O-])cc1 [Compound I-29, 2-(4-cyanophenylamino)-6-(2,6-difluorophenoxy)-3-nitropyridine]
- melting point: 234 to 236 °C
- EC50 (HIV-1IIIB virus strain): 15.9 µg/mL (≈ 43.2 µM)
- SI(CC50/EC50) (HIV-1IIIB virus strain): 2
- CC50 at 4 days [1]: 39.7 µg/mL (≈ 108 µM)

Compound: N#CC=Cc1cc(Br)c(Oc2ccc([N+](=O)[O-])c(Nc3ccc(C#N)cc3)n2)c(Br)c1 [Compound I-30, 2-(4-cyanophenylamino)-6-(2,6-dibromo-4-cyanovinylphenoxy)-3-nitropyridine]
- melting point: 223 to 226 °C
- EC50 (HIV-1IIIB virus strain): 0.045 µg/mL (≈ 0.0832 µM)
- SI(CC50/EC50) (HIV-1IIIB virus strain): 551
- CC50 at 4 days [1]: 24.8 µg/mL (≈ 45.8 µM)
